Source: BindingDB's records for doi:10.1016/j.bmcl.2007.03.028 (Merck Frosst Centre For Therapeutic Research, 2007)
Where “and” joins values, the source holds several entries; their conditions need not be identical. Identical values can stand only once.

Target: T1, Cathepsin K (Oryctolagus cuniculus, UniProt P43236)
T1 sequence (P43236 whole entry): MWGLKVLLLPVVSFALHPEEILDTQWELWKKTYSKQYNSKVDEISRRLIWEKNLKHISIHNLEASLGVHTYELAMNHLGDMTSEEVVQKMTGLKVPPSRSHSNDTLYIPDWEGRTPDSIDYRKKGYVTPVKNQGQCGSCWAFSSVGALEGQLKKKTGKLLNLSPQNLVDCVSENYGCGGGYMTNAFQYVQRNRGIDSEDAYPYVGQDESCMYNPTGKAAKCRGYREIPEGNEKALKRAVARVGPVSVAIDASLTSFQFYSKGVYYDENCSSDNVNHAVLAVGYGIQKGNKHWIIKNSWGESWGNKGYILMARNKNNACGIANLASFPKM
Experiment: In Vitro Enzyme Inhibition Assay and Bone-Resorption Assay
Conditions: pH 5.5; 22 °C
Experimental: Prior to the addition of substrate, different concentrations of the inhibitor ranging from 100 uM to 0.2 nM were preincubated for 15 min with enzyme to allow the establishment of the enzyme-inhibitor complex. The proteolytic cleavage of N-acyl aminocoumarins by cathepsins was conducted in 96-well plate format and the plate read using a Spectramax (Molecular Devices) plate reader. The excitation wavelength was 355 nm and the emission wavelength was 460 nm for peptidyl-AMC substrates. The percent inhibition of the reaction was calculated from a control reaction containing only vehicle. IC50 curves were generated by fitting percent inhibition values to a four parameter logistic model (SOFTMAX PRO, Molecular Devices). EC50/IC50 values were obtained from bone-resorption assay. The long bones were aseptically isolated from a 10-day-old New Zealand White […] (Covance Research Products, Denver, PA) and the soft tissue removed.

SMILES | EC50
CSc1ccc(-c2cn(C)nc2[C@@H]2CCC(F)(F)C[C@H]2C(=O)NCC#N)cc1 | 41 nM
CSc1ccc(-c2c[n+]([O-])ccc2[C@@H]2CCC(F)(F)C[C@H]2C(=O)NCC#N)cc1 [4-[(1R,2R)-2-[(cyanomethyl)carbamoyl]-4,4-difluorocyclohexyl]-3-[4-(methylsulfanyl)phenyl]-1-pyridin-1-olate] | 75 nM
N#CCNC(=O)[C@@H]1CC(F)(F)CC[C@H]1c1cnccc1-c1ccc(SCF)cc1 [(1R,2R)-N-(cyanomethyl)-5,5-difluoro-2-(4-{4-[(fluoromethyl)sulfanyl]phenyl}pyridin-3-yl)cyclohexane-1-carboxamide] | 58 nM
CSc1ccc(-c2ccccc2[C@@H]2CCC(F)(F)C[C@H]2C(=O)NCC#N)cc1 [(1R,2R)-N-(cyanomethyl)-5,5-difluoro-2-{2-[4-(methylsulfanyl)phenyl]phenyl}cyclohexane-1-carboxamide] | 16 nM and 38 nM
CSc1ccc(-c2ncccc2[C@@H]2CCC(F)(F)C[C@H]2C(=O)NCC#N)cc1 [(1R,2R)-N-(cyanomethyl)-5,5-difluoro-2-{2-[4-(methylsulfanyl)phenyl]pyridin-3-yl}cyclohexane-1-carboxamide] | 10 nM

Continued by falling EC50, values first:

EC50 | SMILES
84 nM | CSc1ccc(-c2c([C@@H]3CCC(F)(F)C[C@H]3C(=O)NCC#N)cc[nH]c2=O)cc1 [(1R,2R)-N-(cyanomethyl)-5,5-difluoro-2-{3-[4-(methylsulfanyl)phenyl]-2-oxo-1,2-dihydropyridin-4-yl}cyclohexane-1-carboxamide]
33 nM | CSc1ccc(-c2c([C@@H]3CCC(F)(F)C[C@H]3C(=O)NCC#N)nnn2Cc2ccccc2)cc1 [(1R,2R)-2-{1-benzyl-5-[4-(methylsulfanyl)phenyl]-1H-1,2,3-triazol-4-yl}-N-(cyanomethyl)-5,5-difluorocyclohexane-1-carboxamide]
20 nM | CSc1ccc(-c2c[nH]c(=O)cc2[C@@H]2CCC(F)(F)C[C@H]2C(=O)NCC#N)cc1 [(1R,2R)-N-(cyanomethyl)-5,5-difluoro-2-{5-[4-(methylsulfanyl)phenyl]-2-oxo-1,2-dihydropyridin-4-yl}cyclohexane-1-carboxamide]
18 nM | CSc1ccc(-c2cnccc2[C@@H]2CCC(F)(F)C[C@H]2C(=O)NCC#N)cc1 [(1R,2R)-N-(cyanomethyl)-5,5-difluoro-2-{3-[4-(methylsulfanyl)phenyl]pyridin-4-yl}cyclohexane-1-carboxamide]
17 nM | CSc1ccc(-c2nc(C)sc2[C@@H]2CCC(F)(F)C[C@H]2C(=O)NCC#N)cc1 [(1R,2R)-N-(cyanomethyl)-5,5-difluoro-2-{2-methyl-4-[4-(methylsulfanyl)phenyl]-1,3-thiazol-5-yl}cyclohexane-1-carboxamide]
